In experiment [1] the test system is BH4 production in human peripheral blood mononuclear cells (PBMCs). The experiment is described as follows: hPBMC assay, inhibition of BH4 production by LC-MS (anti-CD3/anti-CD28 stimulated). Format: cell-based. Particulars: PBMC, read-out: hPBMC IC50.
The test system of experiment [2] is BH4 levels in SK-N-BE (2) cells. The experiment is described as follows: SKN-N-BE (2) cellular assay, BH4 levels by LC-MS. It counts as cell-based. The conditions noted are these: Homo sapiens, SKNBE2, read-out: SK-N-BE(2) IC50, SK-N-BE (2) cells, BH4 levels by LC-MS.
The target in experiment [3] is SNAP-hSPR (sepiapterin reductase, SPR) (Homo sapiens, UniProt P35270). The experiment is described as follows: biochemical. Particulars: terbium labelled SNAP-hSPR / SSZ labelled SNAP-EGFP; read-out: hTR-FRET IC50. Format: binding.
SNAP-hSPR (sepiapterin reductase, SPR), sequence (P35270 whole entry): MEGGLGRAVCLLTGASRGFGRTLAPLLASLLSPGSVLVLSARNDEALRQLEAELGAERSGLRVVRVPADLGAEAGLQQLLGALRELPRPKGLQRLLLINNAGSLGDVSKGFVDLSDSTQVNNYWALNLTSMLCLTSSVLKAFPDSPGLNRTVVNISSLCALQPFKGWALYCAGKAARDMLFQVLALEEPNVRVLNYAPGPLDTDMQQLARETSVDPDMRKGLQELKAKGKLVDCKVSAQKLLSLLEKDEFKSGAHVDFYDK

SMILES strings stand for the structures. pIC50: −log10 of the molar value.

The source of these data is patent US9963462B2 (priority 2015, dated 2018).

Take `Cc1cc(=O)[nH]c(-n2ncc(C(=O)N3CCc4ccccc4C3)c2C)n1` [Q-0279, 6-methyl-2-[5-methyl-4-(1,2,3,4-tetrahydroisoquinoline-2-carbonyl)-1H-pyrazol-1-yl]-3,4-dihydropyrimidin-4-one]: the negative-log IC50 (pIC50) (usually −log10 of the IC50, conventionally taken in molar units) in experiment [1] is 5.66; in experiment [2], 6.00; in experiment [3], 8.15.
The matching figures for `Cc1c(C(=O)N2CCc3ccccc3C2)cnn1-c1nc2ccsc2c(=O)[nH]1` [Q-0354]: 6.42, 7.00 and 8.70.
The matching figures for `Cc1c(C(=O)N2CCc3ccccc3C2)cnn1-c1nc2cc[nH]c2c(=O)[nH]1` [Q-0378]: 6.13, 5.39 and 7.52.
As for `Cc1c(C(=O)N2CCC(C(F)(F)F)CC2)cnn1-c1nc2ccsc2c(=O)[nH]1` [Q-0379], the pIC50 in experiment [1] was 6.55; in experiment [2], 7.08; in experiment [3], 8.70.
The matching figures for `Cc1c(C(=O)N2CCC(C(F)(F)F)CC2)cnn1-c1nc2c(c(=O)[nH]1)CCC2` [Q-0418]: 7.49, 7.30 and 8.70.
For the compound `Cc1c(C(=O)N2CCC(C(F)(F)F)CC2C)cnn1-c1nc2c(c(=O)[nH]1)CCC2` (stereo not shown) [Q-0423], the pIC50 is 6.39 in experiment [1], 7.00 in experiment [2] and 8.30 in experiment [3].
For `Cc1c(C(=O)N2CCC(C(F)(F)F)CC2)cnn1-c1nc2[nH]ccc2c(=O)[nH]1` [Q-0427], in that order: 5.96, 5.51 and 8.05.
The matching figures for `Cc1c(C(=O)N2CCC(C3CC3)CC2)cnn1-c1nc2c(c(=O)[nH]1)CCC2` [Q-0451]: 7.89, 7.72 and 8.70.
Consider `O=C(c1cnn(-c2nc3c(c(=O)[nH]2)COC3)c1)N1CCC(C(F)(F)F)CC1` [Q-0453, 2-{4-[4-(trifluoromethyL)piperidine-1-carbonyl]-1H-pyrazol-1-yl}-3H,4H,5H,7H-furo[3,4-d]pyrimidin-4-one], for which the negative logarithm of the IC50 (pIC50) in experiment [1] is 5.89; in experiment [2] it was 5.80; in experiment [3], 8.22.
The matching figures for `O=C(c1cnn(-c2nn3cccc3c(=O)[nH]2)c1)N1CCC(C(F)(F)F)CC1` [Q-0467, 2-{4-[4-(trifluoromethyl)piperidine-1-carbonyl]-1H-pyrazol-1-yl}-3H,4H-pyrrolo[2,1f][1,2,4]triazin-4-one]: 7.00, 7.09 and 8.70.
Take `Cc1c(C(=O)N2CCC(C)(C#N)CC2)cnn1-c1nc2c(c(=O)[nH]1)CCC2` [Q-0518]: the pIC50 in experiment [1] is 7.49; in experiment [2] it was 6.30; in experiment [3], 8.52.
The matching figures for `CCC1(C#N)CCN(C(=O)c2cnn(-c3nc4c(c(=O)[nH]3)CCC4)c2C)CC1` [Q-0519]: 6.92, 7.28 and 8.52.
The matching figures for `O=C(c1cnn(-c2nn3c(F)ccc3c(=O)[nH]2)c1)N1CCC(C(F)(F)F)CC1` [Q-0525, 7-fluoro-2-(4-(4-(trifluoromethyl)piperidine-1-carbonyl)-1H-pyrazol-1-yl)pyrrolo[1,2-f][1,2,4]triazin-4(3H)-one]: 7.62, 7.72 and 9.00.
Turning to `Cc1c(C(=O)N2CC[C@@H](N(C)C(=O)OC(C)(C)C)C2)cnn1-c1nc2c(c(=O)[nH]1)CCC2` [Q-0571], the figures for the negative logarithm of the IC50 (pIC50) in experiment [1], in experiment [2] and in experiment [3] were 7.17, 7.14 and 8.52, respectively.
For `CCC(C#N)C1CCN(C(=O)c2cnn(-c3nc4c(c(=O)[nH]3)CCC4)c2C)CC1` (stereo not shown) [Q-0572], the pIC50 in experiment [1] is 7.62; in experiment [2], 7.44; in experiment [3], 8.70.
The matching figures for `CCC1(C#N)CCN(C(=O)c2cnn(-c3nn4cccc4c(=O)[nH]3)c2C)CC1` [Q-0586]: 6.89, 6.70 and 8.70.
On to `Cc1c(C(=O)N2CCC(S(=O)(=O)c3ccc(F)c(F)c3)CC2)cnn1-c1nn2cccc2c(=O)[nH]1` [Q-0591], for which the pIC50 in experiment [1] is 7.35; in experiment [2] it was 7.00; in experiment [3], 8.52.
For `Cc1c(C(=O)N2CCC3(CC2)CC3)cnn1-c1nc2c(c(=O)[nH]1)CCC2` [Q-0635], in that order: 7.27, 7.00 and 8.70.
On to `Cc1c(C(=O)N2CCC3(CC2)CC(F)(F)C3)cnn1-c1nn2cccc2c(=O)[nH]1` [Q-0690], for which the pIC50 was 7.14 in experiment [1], 6.70 in experiment [2] and 8.70 in experiment [3].
For `Cc1c(C(=O)N2CCN3CCC[C@@H]3C2)cnn1-c1nn2cccc2c(=O)[nH]1` [Q-0693], in that order: 6.35, 6.10 and 8.52.
On to `O=C(c1cnn(-c2nn3cccc3c(=O)[nH]2)c1)N1CCN2CCC[C@@H]2C1` [Q-0703], for which the pIC50 in experiment [1] was 6.72; in experiment [2], 6.22; in experiment [3], 8.40.
The matching figures for `Cc1c(C(=O)N2CCC(C(O)(C(F)(F)F)C(F)(F)F)CC2)cnn1-c1nn2cccc2c(=O)[nH]1` [Q-0721]: 7.59, 7.46 and 9.00.
Consider `Cc1c(C(=O)N2CCN(S(=O)(=O)c3cccc4ccccc34)CC2)cnn1-c1nn2cccc2c(=O)[nH]1` [Q-1841], for which the negative logarithm of the IC50 (pIC50) in experiment [1] is 7.06; in experiment [3], 9.00.
For `Cc1c(C(=O)N2CCN(S(=O)(=O)c3ccc(Cl)s3)CC2)cnn1-c1nn2cccc2c(=O)[nH]1` [Q-1842], the pIC50 in experiment [1] was 6.82; in experiment [3], 9.00.
The matching figures for `Cc1c(C(=O)N2CCN(S(=O)(=O)N(C)C)CC2)cnn1-c1nn2cccc2c(=O)[nH]1` [Q-1846]: 6.77 and 9.00.
Consider `Cc1c(C(=O)N2CCN(S(=O)(=O)c3ccccc3C#N)CC2)cnn1-c1nn2cccc2c(=O)[nH]1` [Q-1847], for which the negative logarithm of the IC50 (pIC50) was 7.19 in experiment [1] and 9.00 in experiment [3].
For the compound `Cc1noc(C)c1S(=O)(=O)N1CCN(C(=O)c2cnn(-c3nn4cccc4c(=O)[nH]3)c2C)CC1` [Q-1848], the pIC50 in experiment [1] is 6.68; in experiment [3], 9.00.
For `Cc1c(C(=O)N2CCN(S(=O)(=O)c3cccnc3)CC2)cnn1-c1nn2cccc2c(=O)[nH]1` [Q-1857], the negative-log IC50 (pIC50) in experiment [1] is 6.82; in experiment [3], 9.00.
As for `Cc1c(C(=O)N2CCN(S(=O)(=O)c3cc(Cl)sc3Cl)CC2)cnn1-c1nn2cccc2c(=O)[nH]1` [Q-1858], the negative logarithm of the IC50 (pIC50) is 6.59 in experiment [1] and 9.00 in experiment [3].
`Cc1c(C(=O)N2CCN(S(=O)(=O)c3cccc4cccnc34)CC2)cnn1-c1nn2cccc2c(=O)[nH]1` [Q-1859]: the figures for the pIC50 in experiment [1] and in experiment [3] were 6.80 and 9.00, respectively.
On to `Cc1c(C(=O)N2CCN(S(=O)(=O)c3ccccc3OC(F)(F)F)CC2)cnn1-c1nn2cccc2c(=O)[nH]1` [Q-1861], for which the pIC50 is 7.01 in experiment [1] and 9.00 in experiment [3].
Take `Cc1c(C(=O)N2CCN(S(=O)(=O)c3ccc(Cl)nc3)CC2)cnn1-c1nn2cccc2c(=O)[nH]1` [Q-1862]: the pIC50 is 6.60 in experiment [1] and 8.70 in experiment [3].
Regarding `Cc1c(C(=O)N2CCN(S(=O)(=O)c3ccc(F)cc3F)CC2)cnn1-c1nn2cccc2c(=O)[nH]1` [Q-1866], the negative-log IC50 (pIC50) in experiment [1] is 7.10; in experiment [3], 8.70.
For the compound `COC(=O)c1sccc1S(=O)(=O)N1CCN(C(=O)c2cnn(-c3nn4cccc4c(=O)[nH]3)c2C)CC1` [Q-1875], the pIC50 was 6.96 in experiment [1] and 9.00 in experiment [3].
Take `Cc1c(C(=O)N2CCN(S(=O)(=O)c3ccc(F)cc3Cl)CC2)cnn1-c1nn2cccc2c(=O)[nH]1` [Q-1876]: the pIC50 in experiment [1] is 6.96; in experiment [3] it was 9.00.
Consider `Cc1c(C(=O)N2CCN(S(=O)(=O)c3cccc4nsnc34)CC2)cnn1-c1nn2cccc2c(=O)[nH]1` [Q-1882], for which the pIC50 in experiment [1] is 7.04; in experiment [3], 8.70.
`Cc1c(C(=O)N2CCC(C(F)(F)F)CC2)c(C(N)=O)nn1-c1nc2c(c(=O)[nH]1)CCC2` [Q-1884, 5-methyl-1-(4-oxo-4,5,6,7-tetrahydro-3H-cyclopenta[d]pyrimidin-2-yl)-4-(4-(trifluoromethyl)piperidine-1-carbonyl)-1H-pyrazole-3-carboxamide]: the pIC50 in experiment [1] is 7.08; in experiment [3] it was 9.00.
The matching figures for `Cc1c(C(=O)N2CCN(S(=O)(=O)C(F)(F)F)CC2)cnn1-c1nn2cccc2c(=O)[nH]1` [Q-1886]: 6.96 and 8.70.
Take `Cc1c(C(=O)N2CCN(C(C)C(F)(F)F)CC2)nnn1-c1nn2cccc2c(=O)[nH]1` (stereo not shown) [Q-1889]: the pIC50 in experiment [1] was 7.44; in experiment [3], 9.00.
For `Cc1c(C(=O)N2CCn3cccc3C2)cnn1-c1nn2cccc2c(=O)[nH]1` [Q-1925], in that order: 6.77 and 9.00.
As to `Cc1c(C(=O)N2CCc3[nH]ncc3C2)cnn1-c1nn2cccc2c(=O)[nH]1` [Q-1932], the negative-log IC50 (pIC50) in experiment [1] is 5.57; in experiment [3], 8.52.
With `Cc1c(C(=O)N2CC(c3ccnc(C(F)F)c3)C2)cnn1-c1nn2cccc2c(=O)[nH]1` [Q-2008], the results for the negative logarithm of the IC50 (pIC50) in experiment [1] and in experiment [3] were 6.52 and 8.70, respectively.
For `Cc1c(C(=O)N2CC(c3ccnc(C(F)(F)F)c3)C2)cnn1-c1nn2cccc2c(=O)[nH]1` [Q-2009], the results for the negative-log IC50 (pIC50) in experiment [1] and in experiment [3] were 6.43 and 8.70, respectively.
Regarding `Cc1c(C(=O)N2CCN(CC3CCCO3)CC2)cnn1-c1nn2cccc2c(=O)[nH]1` (stereo not shown) [Q-2016], the figures for the pIC50 in experiment [1] and in experiment [3] were 7.35 and 9.00, respectively.
The matching figures for `Cc1c(C(=O)N2CC(S(=O)(=O)c3ccccc3)C2)cnn1-c1nn2cccc2c(=O)[nH]1` [Q-2017]: 6.77 and 8.70.
